pIC50: −log10 of the molar value. Counter-ions that a name gives are not always drawn.
Experiments:
[1] = biological target: T1, Vascular endothelial growth factor receptor 2 (Homo sapiens, UniProt P35968); test: Inhibition of VEGFR2 after 30 mins by chemiluminescence ELISA
[2] = biological target: T2, Insulin-like growth factor 1 receptor (Homo sapiens, UniProt P08069); test: Inhibition of IGF1R after 30 mins by chemiluminescence ELISA
[3] = biological target: T3, Epidermal growth factor receptor (Homo sapiens, UniProt P00533); test: Inhibition of EGFR after 30 mins by chemiluminescence ELISA
T3 sequence (P00533 whole entry): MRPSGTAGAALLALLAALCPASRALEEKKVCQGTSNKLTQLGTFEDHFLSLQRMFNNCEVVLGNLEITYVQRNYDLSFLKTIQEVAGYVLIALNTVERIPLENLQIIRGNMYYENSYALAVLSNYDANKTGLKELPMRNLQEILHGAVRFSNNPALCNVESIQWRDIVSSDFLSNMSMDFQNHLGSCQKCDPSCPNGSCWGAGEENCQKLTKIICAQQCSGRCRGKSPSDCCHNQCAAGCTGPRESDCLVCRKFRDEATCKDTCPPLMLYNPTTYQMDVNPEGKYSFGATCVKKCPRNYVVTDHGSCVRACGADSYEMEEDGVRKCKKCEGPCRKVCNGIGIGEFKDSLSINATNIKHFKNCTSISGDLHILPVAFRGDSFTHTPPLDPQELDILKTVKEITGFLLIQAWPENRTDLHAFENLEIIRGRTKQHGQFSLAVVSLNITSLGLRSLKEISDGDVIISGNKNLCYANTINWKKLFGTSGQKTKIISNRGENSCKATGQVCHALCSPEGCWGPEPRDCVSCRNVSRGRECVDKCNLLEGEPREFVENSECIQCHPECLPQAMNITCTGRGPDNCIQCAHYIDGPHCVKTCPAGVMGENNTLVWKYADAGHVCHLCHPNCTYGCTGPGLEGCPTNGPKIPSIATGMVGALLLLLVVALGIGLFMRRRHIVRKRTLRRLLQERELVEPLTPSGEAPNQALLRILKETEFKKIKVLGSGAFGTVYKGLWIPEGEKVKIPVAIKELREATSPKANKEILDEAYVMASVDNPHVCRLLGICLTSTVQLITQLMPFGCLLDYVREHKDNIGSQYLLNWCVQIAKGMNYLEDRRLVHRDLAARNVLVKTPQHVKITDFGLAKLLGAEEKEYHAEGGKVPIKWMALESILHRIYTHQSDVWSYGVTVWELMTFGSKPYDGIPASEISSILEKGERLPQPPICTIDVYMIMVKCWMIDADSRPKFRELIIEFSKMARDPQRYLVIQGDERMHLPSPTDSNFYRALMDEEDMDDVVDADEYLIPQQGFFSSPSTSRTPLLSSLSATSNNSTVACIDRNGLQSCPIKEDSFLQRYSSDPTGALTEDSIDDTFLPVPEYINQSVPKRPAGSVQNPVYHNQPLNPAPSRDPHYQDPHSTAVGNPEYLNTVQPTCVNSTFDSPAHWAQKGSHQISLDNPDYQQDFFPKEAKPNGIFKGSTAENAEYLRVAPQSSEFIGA

[4] = biological target: T4, Vascular endothelial growth factor receptor 3 (Homo sapiens, UniProt P35916); test: Inhibition of VEGFR3 after 30 mins by chemiluminescence ELISA
T4 sequence (P35916 whole entry): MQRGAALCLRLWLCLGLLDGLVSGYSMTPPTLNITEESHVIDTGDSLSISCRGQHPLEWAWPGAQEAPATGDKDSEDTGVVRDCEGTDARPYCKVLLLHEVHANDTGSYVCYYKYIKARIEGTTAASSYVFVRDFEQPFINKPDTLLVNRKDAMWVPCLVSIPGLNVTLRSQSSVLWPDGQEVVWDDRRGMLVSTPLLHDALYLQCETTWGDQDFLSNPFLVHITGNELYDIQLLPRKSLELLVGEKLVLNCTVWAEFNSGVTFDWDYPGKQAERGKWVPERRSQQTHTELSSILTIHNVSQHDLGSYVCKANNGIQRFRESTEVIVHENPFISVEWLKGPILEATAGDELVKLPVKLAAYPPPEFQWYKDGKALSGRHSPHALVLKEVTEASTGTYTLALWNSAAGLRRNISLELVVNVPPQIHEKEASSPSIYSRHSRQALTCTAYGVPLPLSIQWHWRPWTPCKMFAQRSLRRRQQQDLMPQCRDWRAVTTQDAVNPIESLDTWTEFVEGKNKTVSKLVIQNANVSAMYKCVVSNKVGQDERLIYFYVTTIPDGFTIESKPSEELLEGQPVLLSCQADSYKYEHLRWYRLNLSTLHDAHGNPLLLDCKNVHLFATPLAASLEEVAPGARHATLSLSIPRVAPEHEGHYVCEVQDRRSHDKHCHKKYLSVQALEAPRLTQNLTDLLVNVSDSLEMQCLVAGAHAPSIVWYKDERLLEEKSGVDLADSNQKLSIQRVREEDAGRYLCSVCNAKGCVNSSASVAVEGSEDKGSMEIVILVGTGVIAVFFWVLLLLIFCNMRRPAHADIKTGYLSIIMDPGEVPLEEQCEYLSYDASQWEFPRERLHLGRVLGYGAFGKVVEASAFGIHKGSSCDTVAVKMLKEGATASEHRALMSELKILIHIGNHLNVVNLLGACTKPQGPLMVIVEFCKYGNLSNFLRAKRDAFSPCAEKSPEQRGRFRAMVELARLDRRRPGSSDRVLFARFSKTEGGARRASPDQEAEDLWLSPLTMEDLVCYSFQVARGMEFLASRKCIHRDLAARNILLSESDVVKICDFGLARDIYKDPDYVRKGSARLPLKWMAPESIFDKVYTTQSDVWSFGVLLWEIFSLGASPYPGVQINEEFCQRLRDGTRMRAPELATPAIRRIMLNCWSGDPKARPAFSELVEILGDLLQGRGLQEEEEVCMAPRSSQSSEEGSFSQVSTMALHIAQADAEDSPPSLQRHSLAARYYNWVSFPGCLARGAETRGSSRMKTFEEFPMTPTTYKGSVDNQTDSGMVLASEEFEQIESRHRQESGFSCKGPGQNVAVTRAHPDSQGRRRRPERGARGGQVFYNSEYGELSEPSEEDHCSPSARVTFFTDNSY

[5] = system: HUVEC; test: Cytotoxicity against HUVEC after 24 hrs by WST1 assay; type: cell-based; details: Homo sapiens
[6] = biological target: T2, Insulin-like growth factor 1 receptor; test: Noncompetitive inhibition of IGF1R after 30 mins by chemiluminescence ELISA in presence of 50 uM ATP
[7] = biological target: T2, Insulin-like growth factor 1 receptor; test: Noncompetitive inhibition of IGF1R after 30 mins by chemiluminescence ELISA in presence of 250 uM ATP
[8] = system: HUVEC; test: Antiproliferative activity against HUVEC assessed as BrdU incorporation into mitotic active cells after 24 hrs by luminometry; type: cell-based; details: Homo sapiens
[9] = biological target: T4, Vascular endothelial growth factor receptor 3; test: Noncompetitive inhibition of VEGFR3 after 30 mins by chemiluminescence ELISA in presence of 250 uM ATP
[10] = Antiproliferative activity against HEPM cells assessed as BrdU incorporation into mitotic active cells after 24 hrs by luminometry; type: cell-based; details: Homo sapiens
[11] = system: MCF7; test: Antiproliferative activity against human MCF7 cells assessed as BrdU incorporation into mitotic active cells after 24 hrs by luminometry; type: functional, cell-based; details: MCF7, 24 h
[12] = Cytotoxicity against HEPM cells after 24 hrs by WST1 assay; type: cell-based; details: Homo sapiens
[13] = biological target: T1, Vascular endothelial growth factor receptor 2; test: Noncompetitive inhibition of VEGFR2 after 30 mins by chemiluminescence ELISA in presence of 50 uM ATP
[14] = biological target: T3, Epidermal growth factor receptor
Description: Noncompetitive inhibition of EGFR after 30 mins by chemiluminescence ELISA in presence of 25 uM ATP

[15] = biological target: T2, Insulin-like growth factor 1 receptor; test: Noncompetitive inhibition of IGF1R after 30 mins by chemiluminescence ELISA in presence of 25 uM ATP
[16] = system: MCF7; test: Cytotoxicity against human MCF7 cells after 24 hrs by WST1 assay; type: functional, cell-based; details: MCF7, 24 h
[17] = biological target: T4, Vascular endothelial growth factor receptor 3; test: Noncompetitive inhibition of VEGFR3 after 30 mins by chemiluminescence ELISA in presence of 25 uM ATP
[18] = biological target: T1, Vascular endothelial growth factor receptor 2; test: Noncompetitive inhibition of VEGFR2 after 30 mins by chemiluminescence ELISA in presence of 250 uM ATP
[19] = biological target: T3, Epidermal growth factor receptor; remark: listed apart in the source
Description: Noncompetitive inhibition of EGFR after 30 mins by chemiluminescence ELISA in presence of 250 uM ATP

[20] = biological target: T3, Epidermal growth factor receptor; remark: listed apart in the source
Description: Noncompetitive inhibition of EGFR after 30 mins by chemiluminescence ELISA in presence of 50 uM ATP

[21] = system: HT-29; test: Antiproliferative activity against human HT-29 cells assessed as BrdU incorporation into mitotic active cells after 24 hrs by luminometry; type: functional, cell-based; details: HT-29, 24 h
[22] = biological target: T1, Vascular endothelial growth factor receptor 2; test: Noncompetitive inhibition of VEGFR2 after 30 mins by chemiluminescence ELISA in presence of 25 uM ATP
[23] = biological target: T4, Vascular endothelial growth factor receptor 3; test: Noncompetitive inhibition of VEGFR3 after 30 mins by chemiluminescence ELISA in presence of 50 uM ATP
[24] = system: HT-29; test: Cytotoxicity against human HT-29 cells after 24 hrs by WST1 assay; type: functional, cell-based; details: HT-29, 24 h

T1 sequence (P35968 whole entry): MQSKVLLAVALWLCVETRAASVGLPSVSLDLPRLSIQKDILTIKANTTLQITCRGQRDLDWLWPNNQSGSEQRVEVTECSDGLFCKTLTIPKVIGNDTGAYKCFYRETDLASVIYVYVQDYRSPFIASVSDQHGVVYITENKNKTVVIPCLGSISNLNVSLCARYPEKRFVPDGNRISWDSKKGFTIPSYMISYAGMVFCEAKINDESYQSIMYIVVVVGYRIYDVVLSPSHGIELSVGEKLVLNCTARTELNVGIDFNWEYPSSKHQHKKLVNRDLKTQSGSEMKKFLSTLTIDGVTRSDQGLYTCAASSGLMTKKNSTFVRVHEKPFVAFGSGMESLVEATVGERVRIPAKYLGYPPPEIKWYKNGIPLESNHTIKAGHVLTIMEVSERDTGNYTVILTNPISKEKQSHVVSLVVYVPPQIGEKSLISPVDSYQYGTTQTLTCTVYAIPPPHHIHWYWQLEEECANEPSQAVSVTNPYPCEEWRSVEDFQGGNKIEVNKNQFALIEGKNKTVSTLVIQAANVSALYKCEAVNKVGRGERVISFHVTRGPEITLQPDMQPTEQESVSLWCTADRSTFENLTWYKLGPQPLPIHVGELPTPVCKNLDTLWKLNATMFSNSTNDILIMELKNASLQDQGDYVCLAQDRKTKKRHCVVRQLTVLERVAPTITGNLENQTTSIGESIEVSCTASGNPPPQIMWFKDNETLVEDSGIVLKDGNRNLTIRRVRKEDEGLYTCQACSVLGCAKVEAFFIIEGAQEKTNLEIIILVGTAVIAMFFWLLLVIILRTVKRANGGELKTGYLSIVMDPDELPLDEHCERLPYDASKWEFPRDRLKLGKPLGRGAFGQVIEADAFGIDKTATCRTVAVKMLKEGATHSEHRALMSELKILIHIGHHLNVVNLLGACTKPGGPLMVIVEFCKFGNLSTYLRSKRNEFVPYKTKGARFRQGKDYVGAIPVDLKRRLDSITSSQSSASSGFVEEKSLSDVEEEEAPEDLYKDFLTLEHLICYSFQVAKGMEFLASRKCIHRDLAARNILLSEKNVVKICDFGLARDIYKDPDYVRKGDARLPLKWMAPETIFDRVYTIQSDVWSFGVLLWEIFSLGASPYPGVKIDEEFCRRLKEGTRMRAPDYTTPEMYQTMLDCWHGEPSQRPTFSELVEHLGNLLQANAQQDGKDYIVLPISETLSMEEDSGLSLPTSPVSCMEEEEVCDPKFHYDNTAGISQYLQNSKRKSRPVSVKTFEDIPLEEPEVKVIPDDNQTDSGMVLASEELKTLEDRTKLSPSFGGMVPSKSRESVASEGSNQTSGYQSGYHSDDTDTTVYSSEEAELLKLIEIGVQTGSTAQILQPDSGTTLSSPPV

Structure (SMILES) | pIC50 [1] | pIC50 [2] | pIC50 [3] | pIC50 [4] | further results
CSc1ccc(CCCCCn2cc(CCN)c3cc(OCCc4ccc(O)cc4)ccc32)cc1 | 5.91 | 5.65 | 5.72 | 5.60 | –
NCCc1cn(Cc2ccc(-c3cccc(C(F)(F)F)c3)cc2)c2ccc(OCCc3ccc(O)cc3)cc12 | 5.81 | 5.97 | 5.95 | 5.52 | pIC50 [5]: 5.20; pIC50 [6]: 5.97; pIC50 [7]: 5.99; pIC50 [8]: 5.70; pIC50 [9]: 5.51; pIC50 [10]: 5.56; pIC50 [11]: 5.45; pIC50 [12]: 5.18; pIC50 [13]: 5.83; pIC50 [14]: 5.95; pIC50 [15]: 5.97; pIC50 [16]: 5.48; pIC50 [17]: 5.52; pIC50 [18]: 5.82; pIC50 [19]: 5.97; pIC50 [20]: 5.95; pIC50 [21]: 5.36; pIC50 [22]: 5.81; pIC50 [23]: 5.53; pIC50 [24]: 5.10
COc1ccc(-c2ccc(Cn3cc(CCN)c4cc(OCCc5ccc(O)cc5)ccc43)cc2)cc1 | 6.00 | 5.75 | 5.90 | 6.02 | pIC50 [5]: 5.46; pIC50 [8]: 6.12; pIC50 [10]: 5.60; pIC50 [11]: 5.32; pIC50 [12]: 5.24; pIC50 [16]: 5.31; pIC50 [21]: 5.31; pIC50 [24]: 5.07
COCCc1ccc(O)cc1 | < 4.30 | < 4.30 | < 4.30 | < 4.30 | –
COc1ccc(CCCCCn2c3c(c4cc(OCCc5ccc(O)cc5)ccc42)CC(N)CC3)cc1 (stereo unspecified) | 6.03 | 5.54 | 5.86 | 5.74 | –
NC1CCc2c(c3cc(OCCc4ccc(O)cc4)ccc3n2CCCCCc2ccc(C(F)(F)F)cc2)C1 (stereo unspecified) | 5.66 | 5.29 | 5.56 | 5.64 | –
COc1ccc(CCOc2ccc3c(c2)c(CCN)cn3CCCCCc2ccc(SC)cc2)cc1 | 5.84 | 6.01 | 5.61 | 5.88 | –
NCCc1cn(Cc2ccc(-c3ccccc3)cc2)c2ccc(OCCc3ccc(O)cc3)cc12 | 5.93 | 5.63 | 5.89 | 5.39 | –
NCCc1c[nH]c2ccc(OCCc3ccc(O)cc3)cc12 | 5.69 | 5.75 | 5.68 | 5.58 | –
NC1CCc2c(c3cc(OCCc4ccc(O)cc4)ccc3n2CCCc2ccccc2)C1 (stereo unspecified) | 5.68 | 5.88 | 5.60 | 5.55 | –
NC1CCc2[nH]c3ccc(OCCc4ccc(O)cc4)cc3c2C1 (stereo unspecified) | 4.57 | 4.97 | 4.82 | 4.46 | –
NCCc1cn(CCCCCc2ccccc2)c2ccc(OCCc3ccc(O)cc3)cc12 | 5.55 | 5.53 | 5.79 | 5.57 | –
NC1CCc2c(c3cc(OCCc4ccc(O)cc4)ccc3n2CCCCCc2ccccc2)C1 (stereo unspecified) | 5.97 | 6.03 | 6.00 | 5.66 | pIC50 [5]: 5.30; pIC50 [6]: 6.00; pIC50 [7]: 5.91; pIC50 [8]: 5.86; pIC50 [9]: 5.66; pIC50 [10]: 5.65; pIC50 [11]: 5.41; pIC50 [12]: 5.11; pIC50 [13]: 5.96; pIC50 [14]: 6.00; pIC50 [15]: 6.03; pIC50 [16]: 5.32; pIC50 [17]: 5.66; pIC50 [18]: 5.98; pIC50 [19]: 6.00; pIC50 [20]: 6.01; pIC50 [21]: 5.42; pIC50 [22]: 5.97; pIC50 [23]: 5.68; pIC50 [24]: 4.96
COc1ccc(CCCCCn2cc(CCN)c3cc(OCCc4ccc(O)cc4)ccc32)cc1 | 5.66 | 5.49 | 5.36 | 5.69 | –
CSc1ccc(CCCCCn2cc(CCNC(=O)OC(C)(C)C)c3cc(OCCc4ccc(O)cc4)ccc32)cc1 | < 4.30 | < 4.30 | < 4.30 | < 4.30 | –
CN(C)c1ccc(CCCCCn2c3c(c4cc(OCCc5ccc(O)cc5)ccc42)CC(N)CC3)cc1 (stereo unspecified) | – | – | 5.72 | 5.78 | –
NC1CCc2c(c3cc(OCCc4ccc(O)cc4)ccc3n2CCCCCc2ccccn2)C1 (stereo unspecified) | 5.67 | 5.55 | – | – | –
NCCc1c[nH]c2ccc(O)cc12 [SEROTONIN HYDROCHLORIDE] | < 4.30 | < 4.30 | < 4.30 | < 4.30 | –
